According to patent publication US11000506B2, “Envenomation therapies and related pharmaceutical compositions, systems and kits” (OPHIREX, INC, priority 2014, dated 2021):
“Also recorded” adds a separate entry of the source. Like-named read-outs stand apart in the source and are kept apart here.

Experiments:
[1] = molecular target: bee venom PLA2 (Apis mellifera, UniProt P00630); type: biochemical
[2] = system: snake venom serine proteases; experiment: serine protease activity with excess venom (FIG. 3); type: biochemical; details: 100 um; venom 0.444 mg/mL; compared to marimastat and batimastat
Procedure: Substrate for MP was DQ Gelatin and assay run per EnzChek gelatinase assay manufacturers instructions. Venom MP activity was not optimized in initial experiments, but reaction rates were during experiments performed by an independently contracted laboratory. SP assay was performed using Nα-Benzoyl-L-arginine-7-amido-4-methylcoumarin hydrochloride. […] Unless otherwise specified, in the case of my experiments, only crude, unfractionated lyophilized venom purchased from Sigma or the Miami Serpentarium were used. Plate Setup: Manufacturers guidelines (paraphrased herein) were followed unless otherwise specified. Data Analysis: xcel per manufacturers recommendations. MP and SP assays were prepared and plated in the same manner as PLA2 assays except substrates and fluorophores were different. PBS was the buffer in the case of MP and SP assays and absorbance measured at 495 nm. Substrate for MP was DQ Gelatin and assay run per EnzChek gelatinase assay manufacturers instructions except that experiments were run, unconventionally at 37 C to estimate human body temperature and initial experiments for PLA2, MP activity and SP activity were not optimized for screening (e.g. extremely high doses of venom were used—10 mg/mL stock in all cases since the quality of the venom was unknown with final concentration of 0.444 mg/mL in the test wells). […]

[3] = system: M. fulvius venom; experiment: protection of mice from M. fulvius venom (FIG. 6A-D); type: in vivo
Procedure: (§1) Mice received SC injections of M. fulvius venom at ^˜4 times the expected LD50 (typically estimated to be 1.3 mg/kg SC) (0.1 mg M. fulvius venom/animal for approximate dose of ^˜4 mg/kg). Prior to venom injection animals received either total dose 0.1 mg varespladib exipient (sham treatment) by SC route for calculated concentration of 4 mg/kg varespladib ^˜10-15 minutes before venom administration. Surviving animals were euthanized by CO2 inhalation at the end of experiments and observations periods ranging from ^˜12 hours to as long as 30 hours (survival being designated at 24 hours). […] In mice: Varespladib 4-8 mg/kg subcutaneously or orally with methylvarespladib, taken ad libitum. In rats, varespladib or excipient was administered intravenously at 30 seconds or 5 minutes following subcutaneous administration of venom at 4 or 8 mg/kg. Blood sampling and assay for sPLA2 activity was performed with samples taken from a surgically implanted jugular venous catheter at precise intervals (baseline, 30 minutes, 1 hour and 4 hours).
(§2) 6B Mice fed methylvarespladib or exipient ad libitum in biscuits had high-dose M. fulvius venom administered ^˜5 hours after introduction of the biscuits (N=2 each group). […] 6C Venom and varespladib (4 mg/kg) or venom and excipient were mixed just prior to administration and injected subcutaneously. At 5 hours (300 minutes, down-pointing arrow), surviving animals were retreated with ½ dose varespladib (2 mg/kg) or excipient. […] Mice either received venom and sham/excipient (N=7), methylvarespladib (N=3) or varespladib (N=7) ^˜30 seconds to 1.5 minute following venom administration. […] Confirmatory experiments and results of 6E-H were performed in rats by a contract laboratory to assess expand knowledge of varespladib's capacity to act in therapeutic mode and see if the effects of intravenous administration were similar to subcutaneous administration. 6E and 6F M. fulvius venom was administered subcutaneously (4 mg/kg or 8 mg/kg) and then excipient or varespladib 8 mg/kg was administered at 30 seconds or 5 minutes after envenomation.

[4] = system: snake venom PLA2; type: biochemical
Procedure: (§3) Background. Phospholipase A2 (PLA2) catalyzes the hydrolysis of phospholipids at the sn-2 position yielding a free fatty acid and a lysophospholipid. The release of arachidonic acid from membrane phospholipids by PLA is believed to be a key step in the control of eicosanoid production within the cell. The Bee Venom PLA2 Control was a 100 μg/ml solution of bee venom PLA2 is supplied as a positive control in the kit (Abcam kit catalog number ab133089). Substrate for MP was DQ Gelatin and assay run per EnzChek gelatinase assay manufacturers instructions. Venom MP activity was not optimized in initial experiments, but reaction rates were during experiments performed by an independently contracted laboratory. SP assay was performed using Nα-Benzoyl-L-arginine-7-amido-4-methylcoumarin hydrochloride. These kits were stored as specified if stored at −20° C. Unless otherwise specified, in the case of my experiments, only crude, unfractionated lyophilized venom purchased from Sigma or the Miami Serpentarium were used. Plate Setup: Manufacturers guidelines (paraphrased herein) were followed unless otherwise specified. Data Analysis: xcel per manufacturers recommendations. MP and SP assays were prepared and plated in the same manner as PLA2 assays except substrates and fluorophores were different. PBS was the buffer in the case of MP and SP assays and absorbance measured at 495 nm. […]
(§4) Small molecule screening and dose-response experiments took place in the Yale Center for Molecular Discovery. […] PerkinElmer EnVision (3) and Tecan infinite M1000 (2) plate readers sensitively measure absorbance, fluorescence, fluorescence polarization and luminescence in 96- and 384-well plate formats. […]

[5] = molecular target: snake venom metalloproteinase; experiment: IC50 for MP inhibition on various venoms (Table 8, FIG. 20); type: biochemical; details: general statement; values only in figures
[6] = system: C. atrox venom MP; experiment: HTS for inhibitors of C. Atrox venom MP; type: biochemical
Procedure: (§5) Background. Phospholipase A2 (PLA2) catalyzes the hydrolysis of phospholipids at the sn-2 position yielding a free fatty acid and a lysophospholipid. The release of arachidonic acid from membrane phospholipids by PLA is believed to be a key step in the control of eicosanoid production within the cell. The Bee Venom PLA2 Control was a 100 μg/ml solution of bee venom PLA2 is supplied as a positive control in the kit (Abcam kit catalog number ab133089). Substrate for MP was DQ Gelatin and assay run per EnzChek gelatinase assay manufacturers instructions. Venom MP activity was not optimized in initial experiments, but reaction rates were during experiments performed by an independently contracted laboratory. SP assay was performed using Nα-Benzoyl-L-arginine-7-amido-4-methylcoumarin hydrochloride. These kits were stored as specified if stored at −20° C. Unless otherwise specified, in the case of my experiments, only crude, unfractionated lyophilized venom purchased from Sigma or the Miami Serpentarium were used. Plate Setup: Manufacturers guidelines (paraphrased herein) were followed unless otherwise specified. Data Analysis: xcel per manufacturers recommendations. MP and SP assays were prepared and plated in the same manner as PLA2 assays except substrates and fluorophores were different. PBS was the buffer in the case of MP and SP assays and absorbance measured at 495 nm. Substrate for MP was DQ Gelatin and assay run per EnzChek gelatinase assay manufacturers instructions except that experiments were run, unconventionally at 37 C to estimate human body temperature and initial experiments for PLA2, MP activity and SP activity were not optimized for screening (e.g. extremely high doses of venom were used—10 mg/mL stock in all cases since the quality of the venom was unknown with final concentration of 0.444 mg/mL in the test wells). SP assay was performed using Na-Benzoyl-L-arginine-7-amido-4-methylcoumarin hydrochloride (Sigma). Specifics of contract laboratory technique vary from the present inventor's initial experiments in terms of venom and substrate optimization, plate size (384 instead of 96), volume and temperature and other factors including different operators such as those described immediately below, performed following the first pilot experiments and subsequently extended by a contract laboratory.
(§6) Small molecule screening and dose-response experiments took place in the Yale Center for Molecular Discovery. Instrumentation used when indicated included Tecan EVO (2), Tecan Aquarius, Matrix PlateMatePlus (2), Matrix PlateMate2×2 liquid transfer robots and Titertek and Thermo Multidrop liquid dispensers (7). PerkinElmer EnVision (3) and Tecan infinite M1000 (2) plate readers sensitively measure absorbance, fluorescence, fluorescence polarization and luminescence in 96- and 384-well plate formats. A GE InCell Analyzer 2200 imaging system acquires multicolor fluorescent and transmitted light images from plates. Piloting collections used in the first phases of screening were selected by the inventor or from libraries of known compounds and natural products available at the time of experiments on selected venoms including: NCC, GenPlus, Pharmakon, Bioactive lipids, Protease Inhibitors, Procured Drugs and FDA Approved Drugs libraries. The GenPlus (the NINDS Custom Collection) from MicroSource Discovery Systems contains 960 compounds. […]

[7] = system: E. carinatus venom MP; experiment: HTS for inhibitors of E. carinatus venom MP; type: biochemical; details: compounds approximately 10 μM/well
Procedure: as §5, §6

[8] = system: Crotalus otrox venom PLA2; experiment: venom sPLA2 inhibition IC50, varespladib and CroFab alone and together; type: biochemical, Crotalus atrox
Procedure: as §3, with “Plate Setup: Manufacturers guidelines (paraphrased herein) were followed unless otherwise specified. Data Analysis: xcel per manufacturers recommendations. MP and SP assays were prepared and plated in the same manner as PLA2 assays except substrates and fluorophores were different.” left out
as §4

[9] = system: M. fulvius venom; experiment: treatment of rats after M. fulvius venom (FIG. 6E-H); type: in vivo; details: varespladib IV
Procedure: as §1, §2

[10] = system: D. russelli venom; experiment: survival of mice given Daboia russelli venom (FIG. 8); type: in vivo; details: varespladib 4 mg/kg SC 60 to 90 minutes before lethal dose of D. russelli venom; N=3
[11] = system: C. scutulatus venom; experiment: survival of mice coinjected with C. scutulatus venom (FIG. 7A); type: in vivo; details: coinjected SC with C. scutulatus venom, single dose; N=4
[12] = system: Vipera berus venom; experiment: survival of mice given Vipera berus venom (FIG. 9); type: in vivo; details: for survival versus controls: N=7
Text: (§7) V. berus is the most widely distributed viper in the world, ranging across Europe and Eurasia and as far north as the Arctic circle. It elaborates both hemo- and neurotoxins dangerous especially to children, pets and large animals such as horses.

[13] = system: Daboia russelli venom MP; experiment: metalloproteinase activity over time, Daboia russelli venom (FIG. 2B); type: biochemical; details: 100 uM; venom 0.444 mg/mL
Procedure: Substrate for MP was DQ Gelatin and assay run per EnzChek gelatinase assay manufacturers instructions. Venom MP activity was not optimized in initial experiments, but reaction rates were during experiments performed by an independently contracted laboratory. […] These kits were stored as specified if stored at −20° C. Unless otherwise specified, in the case of my experiments, only crude, unfractionated lyophilized venom purchased from Sigma or the Miami Serpentarium were used. Plate Setup: Manufacturers guidelines (paraphrased herein) were followed unless otherwise specified. Data Analysis: xcel per manufacturers recommendations. MP and SP assays were prepared and plated in the same manner as PLA2 assays except substrates and fluorophores were different. PBS was the buffer in the case of MP and SP assays and absorbance measured at 495 nm. Substrate for MP was DQ Gelatin and assay run per EnzChek gelatinase assay manufacturers instructions except that experiments were run, unconventionally at 37 C to estimate human body temperature and initial experiments for PLA2, MP activity and SP activity were not optimized for screening (e.g. extremely high doses of venom were used—10 mg/mL stock in all cases since the quality of the venom was unknown with final concentration of 0.444 mg/mL in the test wells). […]

[14] = system: Crotalus adamanteus venom PLA2; experiment: venom sPLA2 inhibition IC50, varespladib and CroFab alone and together; type: biochemical
Procedure: as §5
(§8) Small molecule screening and dose-response experiments took place in the Yale Center for Molecular Discovery. Instrumentation used when indicated included Tecan EVO (2), Tecan Aquarius, Matrix PlateMatePlus (2), Matrix PlateMate2×2 liquid transfer robots and Titertek and Thermo Multidrop liquid dispensers (7). PerkinElmer EnVision (3) and Tecan infinite M1000 (2) plate readers sensitively measure absorbance, fluorescence, fluorescence polarization and luminescence in 96- and 384-well plate formats. A GE InCell Analyzer 2200 imaging system acquires multicolor fluorescent and transmitted light images from plates. Piloting collections used in the first phases of screening were selected by the inventor or from libraries of known compounds and natural products available at the time of experiments on selected venoms including: NCC, GenPlus, Pharmakon, Bioactive lipids, Protease Inhibitors, Procured Drugs and FDA Approved Drugs libraries. The GenPlus (the NINDS Custom Collection) from MicroSource Discovery Systems contains 960 compounds. This unique selection of known bioactive compounds permits the simultaneous evaluation of hundreds of marketed drugs and biochemical standards. The Pharmakon 1600 collection (MicroSource) includes known drugs used globally or studied in clinical trials.
(§9) Each assay was characterized in similar fashion, using methodology well-established in the Center. Assays are typically performed in 384-well microtiter plates.

[15] = system: Acanthophis antarcticus venom PLA2; experiment: as above; type: biochemical
Procedure: as §5, §8, §9

[16] = system: Crotalus scutulatus scutulatus venom PLA2; experiment: as above; type: biochemical
Procedure: as §5, §8, §9

[17] = system: Agkistrodon contortrix venom PLA2; experiment: as above; type: biochemical
Procedure: as §5, §8, §9

[18] = system: Agkistrodon piscivorus venom PLA2; experiment: as above; type: biochemical
Procedure: as §5, §8, §9

[19] = varespladib alone, no venom; N=2
Text: as §7

[20] = system: snake venom metalloproteinase; experiment: time course of metalloproteinase activity with excess venom (FIG. 2A); type: biochemical; details: inhibitors 100 uM; venom 0.444 mg/mL
Procedure: Substrate for MP was DQ Gelatin and assay run per EnzChek gelatinase assay manufacturers instructions. Venom MP activity was not optimized in initial experiments, but reaction rates were during experiments performed by an independently contracted laboratory. SP assay was performed using Nα-Benzoyl-L-arginine-7-amido-4-methylcoumarin hydrochloride. […] Unless otherwise specified, in the case of my experiments, only crude, unfractionated lyophilized venom purchased from Sigma or the Miami Serpentarium were used. Plate Setup: Manufacturers guidelines (paraphrased herein) were followed unless otherwise specified. Data Analysis: xcel per manufacturers recommendations. MP and SP assays were prepared and plated in the same manner as PLA2 assays except substrates and fluorophores were different. PBS was the buffer in the case of MP and SP assays and absorbance measured at 495 nm. Substrate for MP was DQ Gelatin and assay run per EnzChek gelatinase assay manufacturers instructions except that experiments were run, unconventionally at 37 C to estimate human body temperature and initial experiments for PLA2, MP activity and SP activity were not optimized for screening (e.g. extremely high doses of venom were used—10 mg/mL stock in all cases since the quality of the venom was unknown with final concentration of 0.444 mg/mL in the test wells). SP assay was performed using Na-Benzoyl-L-arginine-7-amido-4-methylcoumarin hydrochloride (Sigma). Specifics of contract laboratory technique vary from the present inventor's initial experiments in terms of venom and substrate optimization, plate size (384 instead of 96), volume and temperature and other factors including different operators such as those described immediately below, performed following the first pilot experiments and subsequently extended by a contract laboratory.
(§10) Screening was carried out for inhibitors of venom sPLA2, MP and SPs. Stock solutions of venom at 10 mg/mL were used without typical dilution for assaying various inhibitors of sPLA2, MP and SPs. The final venom concentration in the assays was very high at 0.444 mg/mL.

[21] = system: snake venom PLA2; experiment: time course of PLA2 activity with excess venom (FIG. 1); type: biochemical; details: inhibitor 100 uM; venom 0.444 mg/mL final; 37 C
Text: Plate Setup: Manufacturers guidelines (paraphrased herein) were followed unless otherwise specified. Data Analysis: xcel per manufacturers recommendations. […] Substrate for MP was DQ Gelatin and assay run per EnzChek gelatinase assay manufacturers instructions except that experiments were run, unconventionally at 37 C to estimate human body temperature and initial experiments for PLA2, MP activity and SP activity were not optimized for screening (e.g. extremely high doses of venom were used—10 mg/mL stock in all cases since the quality of the venom was unknown with final concentration of 0.444 mg/mL in the test wells).
as §10

[22] = system: Oxyuranus scutellatus venom serine protease; experiment: inhibition of venom serine proteases in vitro (FIG. 14); type: biochemical; details: elapid Oxyuranus scutellatus
Procedure: Substrate for MP was DQ Gelatin and assay run per EnzChek gelatinase assay manufacturers instructions. Venom MP activity was not optimized in initial experiments, but reaction rates were during experiments performed by an independently contracted laboratory. SP assay was performed using Nα-Benzoyl-L-arginine-7-amido-4-methylcoumarin hydrochloride. […] Unless otherwise specified, in the case of my experiments, only crude, unfractionated lyophilized venom purchased from Sigma or the Miami Serpentarium were used. Plate Setup: Manufacturers guidelines (paraphrased herein) were followed unless otherwise specified. […] MP and SP assays were prepared and plated in the same manner as PLA2 assays except substrates and fluorophores were different. PBS was the buffer in the case of MP and SP assays and absorbance measured at 495 nm. Substrate for MP was DQ Gelatin and assay run per EnzChek gelatinase assay manufacturers instructions except that experiments were run, unconventionally at 37 C to estimate human body temperature and initial experiments for PLA2, MP activity and SP activity were not optimized for screening (e.g. extremely high doses of venom were used—10 mg/mL stock in all cases since the quality of the venom was unknown with final concentration of 0.444 mg/mL in the test wells). SP assay was performed using Na-Benzoyl-L-arginine-7-amido-4-methylcoumarin hydrochloride (Sigma). […]

[23] = varespladib alone, read-out: Varespladib (IC50 nM)
[24] = varespladib and CroFab ® together, read-out: Varespladib IC50 (nM) With CroFab ®

Sequence of bee venom PLA2 (P00630 34-167 limits assumed): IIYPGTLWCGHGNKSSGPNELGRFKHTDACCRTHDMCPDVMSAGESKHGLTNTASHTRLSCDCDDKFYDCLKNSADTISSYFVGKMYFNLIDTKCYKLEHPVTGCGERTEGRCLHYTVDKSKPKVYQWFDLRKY

Compound: CCc1c(C(=O)C(N)=O)c2c(OCC(=O)OC)cccc2n1Cc1ccccc1 [methylvarespladib]
- inhibition of bee venom PLA2 [1]: only a modest effect
- inhibitory effects on snake venom serine proteases [2]: unexpected inhibitory effects
- signs or symptoms of envenomation / protection from the effects of the venom ([3]; methylvarespladib fed ad libitum in biscuits, high-dose venom ~5 hours later, N=2): complete protection; also recorded: Neither treated mouse exhibited any signs or symptoms of envenomation
- inhibition of snake venom PLA2 in vitro [4]: inhibited the measured sPLA2 activity of several medically important snake venoms

Compound: CCOC(=O)c1ccc(OC(=O)CCCCCNC(=N)N)cc1 [gabexate, ethyl-p[6-guanidinohexanoyloxy]-benzoate methansulfonate]
- IC50s on various venoms [5]: micromolar range
- MP inhibition (in words) [6]: MP inhibition was seen
- % Effect on E. carinatus venom MP [7]: 23%

Compound: CCc1c(C(=O)C(N)=O)c2c(OCC(=O)O)cccc2n1Cc1ccccc1 [Varespladib]
- IC50 [8, 23]: 0.32 nM
- IC50 [8, 24]: 0.07 nM
- inhibition of bee venom PLA2 [1]: not inhibited; also recorded: only a modest effect
- sPLA2 activity in blood samples ([9]; high dose coral snake venom SC, baseline, 30 minutes, 1 hour, 4 hours): dramatic suppression of sPLA2 activity
- gross hemolysis in serum samples ([9]; venom SC): no or minimally visible hemolysis
- pulmonary hemorrhage at necropsy ([9]; venom SC): either no or minimal pulmonary hemorrhage
- survival at 24 hours [10]: all survived 24 hours
- survival versus controls [10]: outlived controls
- survival versus venom only controls [11]: outlived controls
- animals that outlived controls ([12]; Venom SC followed by Varespladib SC 8 mg/kg): 4 of 5
- survival versus controls ([12]; lethal venom dose just prior to SC varespladib): outlived controls
- animals surviving 24 hours ([12]; varespladib IV 8 mg/kg lateral tail vein following venom): 5 of 5
- survival versus controls ([12]; venom and varespladib injected simultaneously SC): outlived controls
- inhibition of Daboia russelli venom MP over time [13]: comparable inhibition
- IC50 [14, 23]: 0.25 nM
- IC50 [14, 24]: 0.05 nM
- IC50 [15, 23]: 0.74 nM
- IC50 [15, 24]: 0.43 nM
- IC50 [16, 23]: 1.51 nM
- IC50 [16, 24]: 0.82 nM
- IC50 [17, 23]: 0.22 nM
- IC50 [17, 24]: 0.045 nM
- IC50 [18, 23]: 0.28 nM
- IC50 [18, 24]: 0.05 nM
- inhibitory effects on snake venom serine proteases [2]: unexpected inhibitory effects
- signs of toxicity [19]: no signs of toxicity
- inhibition of metalloproteinase activity (time course) [20]: showed inhibition of MP activity in several snake venoms
- inhibition of snake venom PLA2 activity (time course) [21]: inhibited PLA2 activity in all snake venoms tested
- mice that died within 8 hours ([3]; varespladib 4 mg/kg SC minutes before M. fulvius venom 4 mg/kg SC): 0 of 5
- mice survived to the endpoint of 24 hours ([3]; {}): 5/5
- inhibition of snake venom PLA2 in vitro [4]: inhibited snake venom PLA2; also recorded: inhibited the measured sPLA2 activity of several medically important snake venoms
- IC50 ([4]; read-out: IC50s specific for snake venoms, lowest value): ≥ 0.05 nM

Compound: N=C(N)c1ccc2cc(OC(=O)c3ccc(N=C(N)N)cc3)ccc2c1 [Nafamostat]
- IC50s on various venoms [5]: micromolar range
- activity against venom serine protease in vitro [22]: surprising activity
- % Effect on E. carinatus venom MP [7]: 28%
